Columns and labels:
[1] = Titration with 0.5 N sodium hydroxide (pKa); assay type: physicochemical
Experimental: A. 12.5 g. of crude 5-carboxy-3-cyano-3-(3-fluorophenyl)-5-methylhexanoic acid dimethyl ester was combined with 62.5 ml. of concentrated sulfuric acid and was heated at 70° C. for 2.5 hours. The reaction was quenched over ice and extracted with three-100 ml. portions of ethyl acetate. The ethyl acetate solution was extracted with pH 11 aqueous sodium hydroxide. The aqueous base layer was washed with ethyl acetate, and the aqueous layer was adjusted to pH 2 with hydrochloric acid and extracted with four-100 ml. portions of ethyl acetate. After drying over anhydrous sodium sulfate, the ethyl acetate extract was concentrated in vacuo to an oil and eventually to a white foam. This was triturated for 20 hours with isopropyl alcohol-diethyl ether to give, after drying at 110° C. at reduced pressure, 610 mg. of the title compound, m.p. 200°-202° C. (shrinks), 212°-215° C. (decomp.). Anal. (C14 H12 O3 NF). Calcd. C,64.36; H,4.63; N,5.36. Found: C,64.25; H,4.60; N,5.42. IR(KBr): 3228, 1723, 1705, 1692, 1605, 1343, 1236, 1199, 1186 cm^-1. NMR 250 MHZ (CD3 SOCD3):δ11.7 (vbs, 1, NH), 7.97(m, 1), 7.31(m, 1 ), 7.13(m, 1), 3.5-2.1(m, 5), and 1.16(d, 3) ppm. […] This experiment defines the structure of the major diasteromer as the title spiro[naphthalene pyrrolidine]trione rather than the alternate indanone spiro-methyl glutarimide cyclization product. […]

[2] = target: T1, aldose reductase obtained from human placenta (Homo sapiens, UniProt P15121); experiment: Inhibition of aldose reductase obtained from human placenta; assay type: biochemical; details: relative to activity in absence of inhibitor, read-out: percent inhibition of aldose reductase enzyme activity
T1 construct: aldose reductase obtained from human placenta; from tissue; host or cells: human placenta
Experimental: Rel 1,3'S,3R Spiro[naphthalene-1(4H),3'-pyrrolidine]-2',4,5'-trione-2,3-dihydro-7-fluoro-3-methyl, the product prepared according to the procedure of Example 1B, was tested for inhibition of aldose reductase obtained from human placenta by using the procedure described by M. J. Peterson et al. in Metabolism, Vol. 28, No. 4, Suppl. 1, p. 456 (1979). The results obtained are expressed in terms of the percent inhibition of aldose reductase enzyme activity (i.e., relative to the aldose activity in the absence of inhibitor) afforded by the compound at three different molar concentration levels (viz., 10^-5, 10^-6 and 10^-7 M).

[3] = system: sorbitol accumulation in the sciatic nerve and lens of diabetic rats; experiment: Inhibition of sorbitol accumulation in sciatic nerve and lens of streptozotocin-diabetic rats; assay type: in vivo; details: sacrifice at 27 h, relative to control
Experimental: Rel 1,3'S,3R Spiro[naphthalene-1(4H),3'-pyrrolidine]-2', 4,5'-trione-2,3-dihydro-7-fluoro-3-methyl, the product prepared according to the procedure of Example 1B, was tested for its ability to reduce or inhibit sorbitol accumulation in the sciatic nerve and lens of diabetic rats. This was done by following the procedure described by M. J. Peterson et al. in Metabolism, Vol. 28, No. 4, Suppl. 1, p. 456 (1979). A single intravenous dose of streptozotocin (85 mg./kg.) was administered to rats. The test compound was fed to the rats orally at four, seven and 24 hours after the administration of the streptozotocin. At 27 hours after streptozotocin administration, the animals were sacrificed and the sciatic nerve and lens were both removed for sorbitol assay. The control animals were given the same streptozotocin treatment, but were not given the test compound. The results obtained are expressed in terms of percent inhibition of sorbitol (i.e., relative to the control) afforded by the test compound in both the sciatic nerve and lens at three different dosage levels tested (viz., 2.5, 1.5 and 1.0 mg./kg.).

Compound C[C@@H]1C[C@]2(CC(=O)NC2=O)c2cc(F)ccc2C1=O (relative stereo) [Example 1, Rel 1,3'S, 3R Spiro[naphthalene-1(4H), 3'-pyrrolidine]-2', 4,5'-trione-2,3-dihydro-7-fluoro-3-methyl] has a pKa ([1]; in 1:1 dioxane-water) of 9.59, a pKa ([1]; in water) of 8.25 and an inhibition at 10 µM ([2]; 10^-5 M) of 78%. The inhibition at 1 µM ([2]; 10^-6 M) was 41%, the inhibition at 0.1 µM ([2]; 10^-7 M) was 3% and the “percent inhibition of sorbitol” value ([3]; lens, 1.0 mg./kg. oral at 4, 7 and 24 h after streptozotocin) was 39%. The “percent inhibition of sorbitol” value ([3]; lens, 1.5 mg./kg. oral at 4, 7 and 24 h after streptozotocin) was 39%, the “percent inhibition of sorbitol” value ([3]; sciatic nerve, 1.0 mg./kg. oral at 4, 7 and 24 h after streptozotocin) was 69% and the “percent inhibition of sorbitol” value ([3]; sciatic nerve, 1.5 mg./kg. oral at 4, 7 and 24 h after streptozotocin) was 76%.
